Measured values as given in PMC10321576, “Cyclic peptides target the aromatic cage of a PHD-finger reader domain to modulate epigenetic protein function” (Chemical Science, 2023).
Peptide text beside a SMILES is read from it.

What was measured:
KDM2/3/4/5/6 = assay: KDM selectivity screening by MALDI-TOF-MS; type: biochemical; details: histone peptide substrates; incl. full-length KDM2A and KDM2B
Text: The panel included full-length recombinant KDM2A and KDM2B which have the closest JmjC-domains to KDM7s, but with unrelated PHD-fingers (Fig. S43 and S44 ^†).

KDM5A PHD3 = target: T1, KDM5A PHD3 (Homo sapiens, UniProt P29375); assay: AlphaScreen displacement of H3 1-21K4me3-Bt; type: binding; details: once at least in duplicate (Fig. 3c)
T1 construct: KDM5A PHD3
Text: (§1) (14 pictures or pasted objects on this page, not shown here)

TAF3 PHD = target: T2, TAF3 PHD (Homo sapiens, UniProt Q5VWG9); assay: AlphaScreen displacement of H3 1-21K4me3-Bt; type: binding; details: once at least in duplicate (Fig. 3c)
T2 construct: TAF3 PHD
Text: as §1

KDM7B PHD-finger = target: T3, KDM7B PHD-finger (Homo sapiens, UniProt Q9UPP1); assay: Protein NMR 1H-15N HSQC chemical shift perturbation; type: binding; details: Free PHD vs PHD+peptide
T3 construct: KDM7B 1-66; His-tag (C); made in house
T3 sequence (Q9UPP1 1-66 isoform Q9UPP1-2): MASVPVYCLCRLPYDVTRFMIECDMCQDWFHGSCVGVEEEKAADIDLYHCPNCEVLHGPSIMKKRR
Text: To better elucidate OC9 interactions at a single residue level, we conducted protein NMR studies using isotopically labelled PHD-finger.[48] Comparison of ^1H–^15N HSQC spectra for isotopically labelled apo and OC9-bound protein (Fig. 4a), independently assigned using ^13C,^15N 3D experiments (Fig. S21, NMR ESI ^†), identified 24 out of 66 protein residues with significant (standard deviation, s > 1) chemical shift perturbation (CSP, Δδ) of their backbone amides (Fig. 4b).
(a) ^1H–^15N HSQC of KDM7B PHD-finger in the apo (black) or bound forms with OC9 (purple, 1 : 1) or H3_1–21K4me3 (green, 3 : 1). (b) ^1H and ^15N chemical shift changes for apo vs. + OC9 were combined and weighted to give chemical shift perturbation (CSP) (Δδ) values. Standard deviation (σ) of Δδ are indicated (>1 pink, >2 purple). (c) TALOS+ predicts similar secondary structure elements in apo and OC9-bound solution protein complexes (light grey) to those found in PDB ID 3KV4 (dark grey). […] (e) Shielded ^1H-NMR signals centred around −0.5 ppm belonging to the OC9 V10 γ-methyl groups are observed in some OC9–PHD complexes, but not in apo protein, or complexes with OC9 V10A and OC9 V10DV. The V10^OC9 γ-methyl signals have NOE interactions (black semi-circles) with the W29^PHD indole, which itself is shielded upon binding of OC9 (indicated by ΔδH values).

KDM7B Dual (PHD+JmjC) = target: T4, KDM7B Dual (PHD+JmjC) (Homo sapiens, UniProt Q9UPP1); assay: BLI binding; design: key to BLI Screening, KDM7B Dual: (+) = binding; (-) = no binding; (NS) = non-specific
T4 construct: Dual domain = PHD+JmjC; made in house
Text: Figure S2. BLI for KDM7 proteins with cyclic peptides.
BLI traces for b inding to KDM7 protein domains immobilised by C-terminal His -tag on Ni -NTA
biosensors, against cyclic peptides. Response trace for each peptide concentration is represented by
a different colour, with the fitted curves overlaid in black.
concentration plotted, with 2-fold dilutions thereafter. Dual domain = PHD+JmjC. […]
against KDM7 and other protein domains. t1/2 = half life (0.693 / Koff)
(1 picture or pasted object on this page, not shown here)

Caco-2 cell = assay: Cell permeability measurement (Caco-2); type: in vitro ADME

T4 sequence (Q9UPP1 37-483 limits assumed): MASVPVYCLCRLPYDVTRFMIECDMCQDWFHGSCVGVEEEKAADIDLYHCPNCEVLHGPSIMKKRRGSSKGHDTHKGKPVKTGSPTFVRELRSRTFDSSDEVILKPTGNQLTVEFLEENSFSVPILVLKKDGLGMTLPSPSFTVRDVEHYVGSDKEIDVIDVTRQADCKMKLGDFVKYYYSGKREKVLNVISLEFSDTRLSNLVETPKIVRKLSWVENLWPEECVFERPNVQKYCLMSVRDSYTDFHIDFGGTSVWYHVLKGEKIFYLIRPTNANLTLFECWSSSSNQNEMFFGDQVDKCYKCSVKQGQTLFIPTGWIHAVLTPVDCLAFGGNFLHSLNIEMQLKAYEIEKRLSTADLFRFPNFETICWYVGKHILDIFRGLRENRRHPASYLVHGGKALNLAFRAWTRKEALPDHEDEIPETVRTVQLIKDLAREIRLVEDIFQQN
T2 sequence (Q5VWG9 865-915 limits assumed): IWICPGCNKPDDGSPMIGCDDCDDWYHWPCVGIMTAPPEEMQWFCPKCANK
T1 sequence (P29375 1607-1661 limits assumed): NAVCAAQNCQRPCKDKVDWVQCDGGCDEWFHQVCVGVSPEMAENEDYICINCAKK

IC50 (KDM5A PHD3): > 5 µM | IC50 (TAF3 PHD): > 5 µM | CSP Trp side chain (KDM7B PHD-finger; Trp side chain 1H-15N): 0.6107 | CSP Ala2 (KDM7B PHD-finger; residue Ala2 amide 1H-15N): 0.0035 | CSP Ala42 (KDM7B PHD-finger; residue Ala42 amide 1H-15N): 0.4429 | CSP Ala43 (KDM7B PHD-finger; residue Ala43 amide 1H-15N): 0.4556 | CSP Arg11 (KDM7B PHD-finger; residue Arg11 amide 1H-15N): 0.0082 | CSP Arg18 (KDM7B PHD-finger; residue Arg18 amide 1H-15N): 0.1460 | CSP Arg65 (KDM7B PHD-finger; residue Arg65 amide 1H-15N): 0.0120 | CSP Arg66 (KDM7B PHD-finger; residue Arg66 amide 1H-15N): 0.0057 | CSP Asn52 (KDM7B PHD-finger; residue Asn52 amide 1H-15N): 0.0450 | CSP Asp15 (KDM7B PHD-finger; residue Asp15 amide 1H-15N): 0.2640 | CSP Asp24 (KDM7B PHD-finger; residue Asp24 amide 1H-15N): 0.0779 | CSP Asp28 (KDM7B PHD-finger; residue Asp28 amide 1H-15N): 0.1748 | CSP Asp44 (KDM7B PHD-finger; residue Asp44 amide 1H-15N): 0.1350 | CSP Asp46 (KDM7B PHD-finger; residue Asp46 amide 1H-15N): 0.1724 | CSP Cys8 (KDM7B PHD-finger; residue Cys8 amide 1H-15N): 0.2344 | CSP Cys10 (KDM7B PHD-finger; residue Cys10 amide 1H-15N): 0.0550 | CSP Cys23 (KDM7B PHD-finger; residue Cys23 amide 1H-15N): 0.1441 | CSP Cys26 (KDM7B PHD-finger; residue Cys26 amide 1H-15N): 0.1542 | CSP Cys34 (KDM7B PHD-finger; residue Cys34 amide 1H-15N): 0.0336 | CSP Cys50 (KDM7B PHD-finger; residue Cys50 amide 1H-15N): 0.0486 | CSP Cys53 (KDM7B PHD-finger; residue Cys53 amide 1H-15N): 0.0638 | CSP Gln27 (KDM7B PHD-finger; residue Gln27 amide 1H-15N): 0.1502 | CSP Glu22 (KDM7B PHD-finger; residue Glu22 amide 1H-15N): 0.1442 | CSP Glu38 (KDM7B PHD-finger; residue Glu38 amide 1H-15N): 0.1925 | CSP Glu39 (KDM7B PHD-finger; residue Glu39 amide 1H-15N): 0.2336 | CSP Glu40 (KDM7B PHD-finger; residue Glu40 amide 1H-15N): 0.1019 | CSP Glu54 (KDM7B PHD-finger; residue Glu54 amide 1H-15N): 0.0569 | CSP Gly32 (KDM7B PHD-finger; residue Gly32 amide 1H-15N): 0.1798 | CSP Gly36 (KDM7B PHD-finger; residue Gly36 amide 1H-15N): 0.1053 | CSP Gly58 (KDM7B PHD-finger; residue Gly58 amide 1H-15N): 0.0436 | CSP His31 (KDM7B PHD-finger; residue His31 amide 1H-15N): 0.2040 | CSP His49 (KDM7B PHD-finger; residue His49 amide 1H-15N): 0.0826 | CSP His57 (KDM7B PHD-finger; residue His57 amide 1H-15N): 0.0542 | CSP Ile21 (KDM7B PHD-finger; residue Ile21 amide 1H-15N): 0.1523 | CSP Ile45 (KDM7B PHD-finger; residue Ile45 amide 1H-15N): 0.1111 | CSP Ile61 (KDM7B PHD-finger; residue Ile61 amide 1H-15N): 0.1500 | CSP Leu9 (KDM7B PHD-finger; residue Leu9 amide 1H-15N): 0.2010 | CSP Leu12 (KDM7B PHD-finger; residue Leu12 amide 1H-15N): 0.1857 | CSP Leu47 (KDM7B PHD-finger; residue Leu47 amide 1H-15N): 0.0914 | CSP Leu56 (KDM7B PHD-finger; residue Leu56 amide 1H-15N): 0.0558 | CSP Lys41 (KDM7B PHD-finger; residue Lys41 amide 1H-15N): 0.1054 | CSP Lys63 (KDM7B PHD-finger; residue Lys63 amide 1H-15N): 0.1309 | CSP Lys64 (KDM7B PHD-finger; residue Lys64 amide 1H-15N): 0.0270 | CSP Met20 (KDM7B PHD-finger; residue Met20 amide 1H-15N): 0.3618 | CSP Met25 (KDM7B PHD-finger; residue Met25 amide 1H-15N): 0.6758 | CSP Met62 (KDM7B PHD-finger; residue Met62 amide 1H-15N): 0.0955 | CSP Phe19 (KDM7B PHD-finger; residue Phe19 amide 1H-15N): 0.3281 | CSP Phe30 (KDM7B PHD-finger; residue Phe30 amide 1H-15N): 0.2483 | CSP Ser3 (KDM7B PHD-finger; residue Ser3 amide 1H-15N): 0.0045 | CSP Ser33 (KDM7B PHD-finger; residue Ser33 amide 1H-15N): 0.1228 | CSP Ser60 (KDM7B PHD-finger; residue Ser60 amide 1H-15N): 0.0469 | CSP Thr17 (KDM7B PHD-finger; residue Thr17 amide 1H-15N): 0.2705 | CSP Trp29 (KDM7B PHD-finger; residue Trp29 amide 1H-15N): 0.3903 | CSP Tyr7 (KDM7B PHD-finger; residue Tyr7 amide 1H-15N): 0.2658 | CSP Tyr14 (KDM7B PHD-finger; residue Tyr14 amide 1H-15N): 0.3173 | CSP Tyr48 (KDM7B PHD-finger; residue Tyr48 amide 1H-15N): 0.7926 | CSP Val4 (KDM7B PHD-finger; residue Val4 amide 1H-15N): 0.0230 | CSP Val6 (KDM7B PHD-finger; residue Val6 amide 1H-15N): 0.1610 | CSP Val16 (KDM7B PHD-finger; residue Val16 amide 1H-15N): 0.3656 | CSP Val35 (KDM7B PHD-finger; residue Val35 amide 1H-15N): 0.0666 | CSP Val37 (KDM7B PHD-finger; residue Val37 amide 1H-15N): 0.0847 | CSP Val55 (KDM7B PHD-finger; residue Val55 amide 1H-15N): 0.0250 | koff (KDM7B Dual (PHD+JmjC); 1:1 binding model): 0.00413 ± 3e-05 s⁻¹ | kon (KDM7B Dual (PHD+JmjC); 1:1 binding model): 691000 ± 7000 M⁻¹ s⁻¹ | Kd (KDM7B Dual (PHD+JmjC); His-tagged protein on Ni-NTA biosensors, 1:1 binding model): 0.00598 µM | BLI Screening, KDM7B Dual (KDM7B Dual (PHD+JmjC); qualitative assessment of binding by BLI): + | permeability in Caco-2 cell assay (Caco-2 cell): negligible permeability
Structure (SMILES): CC(C)C[C@@H]1NC(=O)[C@H](Cc2ccc(O)cc2)NC(=O)[C@H](Cc2ccc(O)cc2)NC(=O)CSC[C@@H](C(N)=O)NC(=O)[C@H]([C@@H](C)O)NC(=O)[C@H](CCCNC(=N)N)NC(=O)[C@H](Cc2ccccc2)NC(=O)[C@H](C(C)C)NC(=O)[C@H](CO)NC(=O)[C@@H]2CCCN2C(=O)[C@H](Cc2ccc(O)cc2)NC(=O)[C@@H]2CCCN2C(=O)[C@H](Cc2c[nH]cn2)NC(=O)[C@H]([C@@H](C)O)NC1=O [OC9] (HELM PEPTIDE1{[O=C(C[*:3])[*:2]].Y.Y.L.T.H.P.Y.P.S.V.F.R.T.C.[am]}$PEPTIDE1,PEPTIDE1,1:R3-15:R3$$$V2.0)
inhibition of other isolated KDM sub-families (KDM2/3/4/5/6) (KDM2/3/4/5/6): no significant inhibition
